IC50 data for two compounds are collected here from BindingDB's records for doi:10.1021/jm900597q (Gilead Sciences, 2009).

Experiment [1] addresses Reverse transcriptase/RNaseH (Human immunodeficiency virus 1, UniProt Q72547). In words: Fluorescence-Based RNase H Assay. Particulars: pH 8; 20 °C.
The next experiment has as its target T1, Ribonuclease H1 (Homo sapiens, UniProt O60930).
T1 sequence (O60930 whole entry): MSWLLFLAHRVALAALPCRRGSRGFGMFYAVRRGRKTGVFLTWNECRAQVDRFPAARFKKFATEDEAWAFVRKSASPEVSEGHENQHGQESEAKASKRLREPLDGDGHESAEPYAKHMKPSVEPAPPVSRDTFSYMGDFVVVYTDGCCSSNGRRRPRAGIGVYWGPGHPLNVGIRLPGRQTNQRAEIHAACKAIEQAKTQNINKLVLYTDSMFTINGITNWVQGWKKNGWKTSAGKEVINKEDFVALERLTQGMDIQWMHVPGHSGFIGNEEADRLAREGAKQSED
Nature of the experiment: Fluorescence-Based RNase H Assay. Particulars: pH 8; 20 °C.

A value given as a limit tells only on which side of the number the result lay.

As to `O=C(O)c1nc(-c2ccccc2)nc(O)c1O`, the figures for the IC50 (in experiment [1]; on Ribonuclease H1) were 13 µM and more than 100 µM, respectively.
Turning to `CC(C)c1ccc(O)c(=O)c(O)c1` [hydroxytropolone, 3], the IC50 in experiment [1] worked out at 0.66 µM.
